For one test, the system named is CCRF-CEM. As to the kind of experiment: Cytotoxicity against human CCRF-CEM cells assessed as cell viability. The format is functional, cell-based.
For the next test, the system named is HeLa. In words: Cytotoxicity against human HeLa cells assessed as cell viability. The class given is functional, cell-based.

As usually defined, the IC50 is the concentration that gives 50% inhibition.

Converted amounts (≈) assume the structure as drawn.

For the compound `C=C1C[C@H]2C(=CC[C@H]3C(C)(C)[C@H](OC(C)=O)CC[C@]23C)[C@]2(C)CC[C@H]([C@H](C)CC/C=C(/C)C(=O)O)C12` (stereo partly specified) [ANANOSIC ACID B], the half-maximal inhibitory concentration (IC50) in the test on CCRF-CEM is 49.6 µg/mL (≈ 99.9 µM); in the test with HeLa, 0.54 µg/mL (≈ 1.09 µM).

Turning to `C=C1C[C@H]2C(=CC[C@H]3C(C)(C)C(=O)CC[C@]23C)[C@]2(C)CC[C@H]([C@H](C)CC/C=C(/C)C(=O)O)C12` (stereo partly specified) [ANANOSIC ACID C], the half-maximal inhibitory concentration (IC50) in the test with CCRF-CEM came out at 45.2 µg/mL (≈ 99.9 µM); in the test on HeLa it was 0.48 µg/mL (≈ 1.06 µM).

Consider `C/C(=C/CC[C@@H](C)C1=C2C(C)C[C@H]3C(=CC[C@H]4C(C)(C)[C@H](O)CC[C@]34C)[C@]2(C)CC1)C(=O)O` (stereo partly specified) [ANANOSIC ACID A], for which the concentration for half-maximal inhibition (IC50) amounted to 45.4 µg/mL (≈ 99.8 µM) in the test on CCRF-CEM and 0.46 µg/mL (≈ 1.01 µM) in the test on HeLa.

(Values after ChEMBL document CHEMBL1151212, “Ananosic acids B and C, two new 18(13-->12)-abeo-lanostane triterpenoids from Kadsura ananosma” (J Nat Prod, 2004).)
